ChEMBL document CHEMBL1201862, “PubChem BioAssay data set” (2004)
Activity calls are given as the source filed them.

Assays:
[1] = HEp-2 cell cytotoxicity, dose response, cytotoxicity control for RSV inhibitor project, HTS (AID 2410); format: functional; conditions: human respiratory syncytial virus
Protein skinhead-1 = molecular target: T1, Protein skinhead-1 (Caenorhabditis elegans, UniProt P34707); format: functional
T1 sequence (P34707 whole entry): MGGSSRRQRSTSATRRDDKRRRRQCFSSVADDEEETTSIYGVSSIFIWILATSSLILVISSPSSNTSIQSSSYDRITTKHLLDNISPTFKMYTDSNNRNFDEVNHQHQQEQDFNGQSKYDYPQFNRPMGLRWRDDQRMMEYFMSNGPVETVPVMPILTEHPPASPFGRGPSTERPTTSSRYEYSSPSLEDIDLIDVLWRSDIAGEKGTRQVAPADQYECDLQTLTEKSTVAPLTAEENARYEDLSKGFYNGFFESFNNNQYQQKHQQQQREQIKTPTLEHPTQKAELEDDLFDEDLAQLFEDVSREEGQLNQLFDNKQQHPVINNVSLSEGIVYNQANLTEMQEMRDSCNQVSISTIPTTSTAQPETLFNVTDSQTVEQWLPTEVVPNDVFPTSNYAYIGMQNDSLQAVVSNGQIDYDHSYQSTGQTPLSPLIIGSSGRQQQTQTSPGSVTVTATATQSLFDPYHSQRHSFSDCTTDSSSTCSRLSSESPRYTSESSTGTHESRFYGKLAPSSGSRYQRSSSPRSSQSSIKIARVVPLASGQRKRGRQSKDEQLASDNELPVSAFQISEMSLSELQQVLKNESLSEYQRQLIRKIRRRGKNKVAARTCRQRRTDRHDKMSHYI

[2] = molecular target: T2, Replicative DNA helicase DnaB (Mycobacterium tuberculosis, UniProt P9WMR3); experiment: DnaB intein splicing inhibitors, dose response, biochemical, cell-free fluorescence (AID 449749); format: functional
T2 sequence (P9WMR3 whole entry): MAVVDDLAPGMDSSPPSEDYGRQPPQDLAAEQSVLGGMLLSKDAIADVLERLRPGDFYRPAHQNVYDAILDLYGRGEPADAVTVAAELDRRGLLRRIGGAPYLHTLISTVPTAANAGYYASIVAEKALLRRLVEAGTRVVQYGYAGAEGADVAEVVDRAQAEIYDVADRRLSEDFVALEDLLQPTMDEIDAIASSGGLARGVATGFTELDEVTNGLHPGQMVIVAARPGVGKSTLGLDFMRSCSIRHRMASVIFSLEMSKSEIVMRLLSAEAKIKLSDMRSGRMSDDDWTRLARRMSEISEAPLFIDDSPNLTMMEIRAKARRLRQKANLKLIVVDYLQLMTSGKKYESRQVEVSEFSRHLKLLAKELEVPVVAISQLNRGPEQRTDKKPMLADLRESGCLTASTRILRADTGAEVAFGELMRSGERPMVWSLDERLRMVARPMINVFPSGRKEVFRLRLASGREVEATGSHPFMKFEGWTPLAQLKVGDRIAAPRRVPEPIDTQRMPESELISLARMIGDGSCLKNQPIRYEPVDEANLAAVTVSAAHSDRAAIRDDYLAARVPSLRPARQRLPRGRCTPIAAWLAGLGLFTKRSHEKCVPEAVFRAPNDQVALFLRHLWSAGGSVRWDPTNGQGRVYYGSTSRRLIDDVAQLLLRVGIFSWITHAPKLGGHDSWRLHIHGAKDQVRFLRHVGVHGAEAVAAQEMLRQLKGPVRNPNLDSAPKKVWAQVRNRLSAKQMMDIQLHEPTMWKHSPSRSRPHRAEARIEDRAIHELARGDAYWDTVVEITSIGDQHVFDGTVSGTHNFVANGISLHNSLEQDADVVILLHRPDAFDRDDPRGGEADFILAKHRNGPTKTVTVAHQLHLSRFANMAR

Protein RecA = molecular target: T3, Protein RecA (Mycobacterium tuberculosis, UniProt P9WHJ3); experiment: Fluorescence Cell-Free Homogeneous Dose Retest to Identify Inhibitors of RecA-Intein Splicing Activity. [Related pubchem assays (depositor defined):AID2097, AID2223, AID489010, AID492950]; format: functional
T3 sequence (P9WHJ3 whole entry): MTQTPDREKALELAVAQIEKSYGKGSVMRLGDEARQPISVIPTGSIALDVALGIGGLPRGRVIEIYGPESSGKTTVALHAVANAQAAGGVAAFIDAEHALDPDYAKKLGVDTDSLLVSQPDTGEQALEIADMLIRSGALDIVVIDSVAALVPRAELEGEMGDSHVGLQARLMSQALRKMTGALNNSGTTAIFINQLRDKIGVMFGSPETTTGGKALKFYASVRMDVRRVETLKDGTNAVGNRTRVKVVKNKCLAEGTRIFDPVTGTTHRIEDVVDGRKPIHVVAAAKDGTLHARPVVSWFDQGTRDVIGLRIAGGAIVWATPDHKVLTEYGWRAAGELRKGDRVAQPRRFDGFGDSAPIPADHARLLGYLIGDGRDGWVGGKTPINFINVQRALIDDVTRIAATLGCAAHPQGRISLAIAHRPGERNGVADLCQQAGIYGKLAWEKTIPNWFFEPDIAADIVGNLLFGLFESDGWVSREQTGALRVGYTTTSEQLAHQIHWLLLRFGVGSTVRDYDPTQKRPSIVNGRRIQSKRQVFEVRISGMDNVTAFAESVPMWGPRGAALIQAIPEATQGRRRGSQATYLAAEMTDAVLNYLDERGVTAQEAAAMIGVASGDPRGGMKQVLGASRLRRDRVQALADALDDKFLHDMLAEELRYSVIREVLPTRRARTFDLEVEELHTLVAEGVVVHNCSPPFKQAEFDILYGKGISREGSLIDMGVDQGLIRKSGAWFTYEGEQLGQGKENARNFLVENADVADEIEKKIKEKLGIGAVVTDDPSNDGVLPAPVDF

Cytochrome P450 1A2 = molecular target: T4, Cytochrome P450 1A2 (Homo sapiens, UniProt P05177);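 note: PubChem cytochrome P450 panel assay, CYP1A2 panel member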
T4 sequence (P05177 whole entry): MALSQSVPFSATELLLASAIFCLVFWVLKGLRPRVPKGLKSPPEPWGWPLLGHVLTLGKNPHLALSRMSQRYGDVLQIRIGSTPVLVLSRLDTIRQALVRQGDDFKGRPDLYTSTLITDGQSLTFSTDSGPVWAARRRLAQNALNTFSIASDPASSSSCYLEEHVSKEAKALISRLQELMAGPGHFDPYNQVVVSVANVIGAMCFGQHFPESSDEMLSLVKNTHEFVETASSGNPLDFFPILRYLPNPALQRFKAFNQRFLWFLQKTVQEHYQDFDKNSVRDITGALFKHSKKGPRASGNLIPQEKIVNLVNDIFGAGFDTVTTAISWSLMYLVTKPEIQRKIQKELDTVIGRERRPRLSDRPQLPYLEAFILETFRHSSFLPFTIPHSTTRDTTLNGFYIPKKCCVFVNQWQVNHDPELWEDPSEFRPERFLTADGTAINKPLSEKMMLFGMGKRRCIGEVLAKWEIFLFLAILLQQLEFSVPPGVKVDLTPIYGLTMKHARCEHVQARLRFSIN

Cytochrome P450 2C19 = Cytochrome P450 2C19 (Homo sapiens, UniProt P33261); experiment: Cytochrome panel assay with activity outcomes. Panel member name: p450-cyp2c19 Compounds with AC50 equal or less than 10 uM are considered active; format: functional; conditions: read-out: AC50
Cytochrome P450 2C9 = Cytochrome P450 2C9 (Homo sapiens, UniProt P11712)
[3] = molecular target: Luciferin 4-monooxygenase (Photinus pyralis, UniProt P08659); experiment: firefly luciferase enzyme inhibitors, dose response, biochemical, luminescence (AID 1891)
[4] = Luminescence Cell-Based Dose Confirmation HTS to Identify Inhibitors of Platelet Dense Granule Release. [Related pubchem assays: 1663 (Primary HTS), 1678 (Summary of Project)]; format: functional
[5] = Luminescence Cell-Based Dose Retest to Confirm Inhibitors of Cancer Stem Cells. [Related pubchem assays (depositor defined):AID2717, AID2721]; format: functional, Homo sapiens; conditions: Homo sapiens
[6] = molecular target: T5, Heat shock factor protein 1 (Mus musculus, UniProt P38532); experiment: HSF1 potentiators in luciferase reporter cells, confirmation, cell-based, NIH3T3, luminescence, dose retest (AID 435004); format: functional;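 note: stress induced by proteasome inhibitor MG132 added 30 min after compound; luciferase reporter driven by HSF1 response element in NIH3T3 cells; actives raise luminescence as potentiators of the MG132 stress response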
T5 sequence (P38532 whole entry): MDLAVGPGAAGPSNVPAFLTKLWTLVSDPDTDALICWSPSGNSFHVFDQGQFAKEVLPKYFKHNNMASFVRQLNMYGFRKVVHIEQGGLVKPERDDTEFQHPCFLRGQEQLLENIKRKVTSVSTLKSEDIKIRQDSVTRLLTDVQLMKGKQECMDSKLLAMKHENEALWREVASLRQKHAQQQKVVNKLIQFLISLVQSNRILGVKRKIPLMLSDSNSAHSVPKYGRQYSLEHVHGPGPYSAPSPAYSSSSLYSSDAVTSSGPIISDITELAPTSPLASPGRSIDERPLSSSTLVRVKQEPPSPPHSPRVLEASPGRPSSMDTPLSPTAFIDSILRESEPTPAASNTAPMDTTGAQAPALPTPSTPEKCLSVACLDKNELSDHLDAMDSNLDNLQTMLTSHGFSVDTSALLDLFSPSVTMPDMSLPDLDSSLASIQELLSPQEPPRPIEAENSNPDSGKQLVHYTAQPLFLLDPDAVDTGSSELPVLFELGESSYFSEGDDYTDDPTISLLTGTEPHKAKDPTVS

Cytochrome P450 3A4 = Cytochrome P450 3A4 (Homo sapiens, UniProt P08684);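 note: CYP3A4 tested as one member of a cytochrome P450 panel screen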
Sequence of Cytochrome P450 3A4 (P08684 whole entry): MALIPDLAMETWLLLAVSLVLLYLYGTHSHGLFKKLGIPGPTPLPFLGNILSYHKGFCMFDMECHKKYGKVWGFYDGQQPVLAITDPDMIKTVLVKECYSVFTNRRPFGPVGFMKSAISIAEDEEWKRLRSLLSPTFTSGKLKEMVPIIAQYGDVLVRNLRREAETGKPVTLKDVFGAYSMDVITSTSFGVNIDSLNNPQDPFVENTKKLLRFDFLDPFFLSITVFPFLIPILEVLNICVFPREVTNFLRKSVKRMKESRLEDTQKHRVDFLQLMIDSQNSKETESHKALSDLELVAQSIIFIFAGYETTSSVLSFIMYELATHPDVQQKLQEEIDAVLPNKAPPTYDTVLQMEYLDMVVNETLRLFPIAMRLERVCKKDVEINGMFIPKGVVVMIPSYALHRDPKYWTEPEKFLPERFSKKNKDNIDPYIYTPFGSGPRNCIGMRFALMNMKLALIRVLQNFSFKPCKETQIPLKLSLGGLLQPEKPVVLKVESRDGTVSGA

Sequence of Cytochrome P450 2C19 (P33261 whole entry): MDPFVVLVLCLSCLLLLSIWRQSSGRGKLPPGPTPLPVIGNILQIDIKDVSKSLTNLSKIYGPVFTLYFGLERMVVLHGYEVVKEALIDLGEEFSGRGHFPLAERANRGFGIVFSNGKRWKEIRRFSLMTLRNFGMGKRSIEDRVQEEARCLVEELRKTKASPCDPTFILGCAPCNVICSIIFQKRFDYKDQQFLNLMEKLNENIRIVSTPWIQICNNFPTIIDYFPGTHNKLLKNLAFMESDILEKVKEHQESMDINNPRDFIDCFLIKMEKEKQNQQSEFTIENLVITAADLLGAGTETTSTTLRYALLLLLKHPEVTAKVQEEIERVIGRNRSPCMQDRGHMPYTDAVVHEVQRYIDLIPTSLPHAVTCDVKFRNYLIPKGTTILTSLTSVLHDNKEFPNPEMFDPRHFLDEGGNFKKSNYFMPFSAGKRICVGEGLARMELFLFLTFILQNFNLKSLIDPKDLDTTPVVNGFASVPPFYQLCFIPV
Sequence of Luciferin 4-monooxygenase (P08659 whole entry): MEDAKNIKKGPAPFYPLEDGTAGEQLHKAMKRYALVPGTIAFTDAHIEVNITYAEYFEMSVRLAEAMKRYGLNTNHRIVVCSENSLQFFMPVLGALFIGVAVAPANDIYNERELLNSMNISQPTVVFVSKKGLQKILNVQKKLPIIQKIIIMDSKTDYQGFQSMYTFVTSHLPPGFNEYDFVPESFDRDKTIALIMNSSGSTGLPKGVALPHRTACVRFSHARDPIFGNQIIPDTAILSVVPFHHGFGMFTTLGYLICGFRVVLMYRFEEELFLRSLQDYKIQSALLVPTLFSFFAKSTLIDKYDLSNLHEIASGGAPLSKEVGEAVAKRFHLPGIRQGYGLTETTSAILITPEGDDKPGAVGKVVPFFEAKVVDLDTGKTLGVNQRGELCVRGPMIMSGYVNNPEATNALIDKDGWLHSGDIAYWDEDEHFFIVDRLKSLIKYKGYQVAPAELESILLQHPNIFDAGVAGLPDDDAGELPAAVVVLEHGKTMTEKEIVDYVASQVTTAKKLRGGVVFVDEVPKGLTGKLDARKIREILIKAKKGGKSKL
Sequence of Cytochrome P450 2C9 (P11712 whole entry): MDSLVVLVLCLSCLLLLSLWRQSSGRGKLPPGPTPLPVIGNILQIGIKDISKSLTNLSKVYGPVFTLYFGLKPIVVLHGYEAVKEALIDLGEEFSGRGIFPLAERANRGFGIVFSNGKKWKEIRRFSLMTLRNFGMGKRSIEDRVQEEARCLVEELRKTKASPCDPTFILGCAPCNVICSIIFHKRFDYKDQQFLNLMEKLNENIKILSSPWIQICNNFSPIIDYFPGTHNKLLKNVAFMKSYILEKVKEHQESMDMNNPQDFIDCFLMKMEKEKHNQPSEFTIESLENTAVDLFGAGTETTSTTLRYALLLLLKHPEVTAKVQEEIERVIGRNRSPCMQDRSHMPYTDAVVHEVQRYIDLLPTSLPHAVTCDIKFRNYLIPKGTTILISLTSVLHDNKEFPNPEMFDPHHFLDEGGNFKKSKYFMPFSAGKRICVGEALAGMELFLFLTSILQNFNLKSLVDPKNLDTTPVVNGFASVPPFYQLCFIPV

c1ccc2sc(-c3ccncc3)nc2c1
CC50 [1]: 25.5 µM (active)
IC50 (Protein skinhead-1): 54.5 µM (inactive)

COCc1n[nH]c2c1C(c1ccccc1F)C(C#N)=C(N)O2 (stereo not drawn)
AC50 [2]: 36.4 µM (active)
EC50 (Protein RecA): 6.49 µM (active)

Cc1nnc(SCCn2c(N3CC(C)CC(C)C3)nc3c2c(=O)n(C)c(=O)n3C)s1 (stereo not drawn)
IC50 (Protein skinhead-1): > 100 µM (inactive)

O[C@H](CN1CCN(c2cccc(Cl)c2)CC1)C(c1ccccc1)c1ccccc1
AC50 (Cytochrome P450 1A2): 31.6 µM (inconclusive)

OC(CNC1CCCC1)COc1ccc(-c2ccccc2)cc1 (stereo not drawn)
IC50 (Protein skinhead-1): 45.6 µM (active)

O=C(O)/C=C\C(=O)Nc1ccc(Oc2ccc(Br)cc2)cc1
AC50 [2]: 14.6 µM (active)
EC50 (Protein RecA): 11 µM (active)

COc1cc(N)c(Cl)cc1C(=O)N[C@H]1CCN(CCCOc2ccc(F)cc2)C[C@@H]1OC
AC50 (Cytochrome P450 2C19): 0.794 µM (active)
AC50 (Cytochrome P450 1A2): 25.1 µM (inconclusive)
AC50 (Cytochrome P450 2C9): 1 µM (active)

COC(=O)c1ccc(NC(=O)C(=O)c2cccn2C)cc1
EC50 [3]: 1.74 µM (active)
EC50 [4]: 2.39 µM (active)

CCn1c(SCC(=O)N(C)c2c(N)n(Cc3ccccc3)c(=O)[nH]c2=O)nc2ccccc21
EC50 [3]: > 112 µM (not active)
EC50 [4]: > 112 µM (not active)

CN(C)c1ccc([C@@H]2N([C@H](C#N)c3ccc(N(C)C)cc3)CCCN2[C@@H](C#N)c2ccc(N(C)C)cc2)cc1
AC50 (Cytochrome P450 1A2): 5.01 µM (inconclusive)

S=C(Nc1cccc(Cl)c1)N(CCCN1CCCC1)Cc1cccn1Cc1ccc(Cl)cc1
AC50 [5]: 6.16 µM (active)
EC50 [6]: > 120 µM (inactive)

Clc1ccsc1-c1ccc2ccccc2n1
IC50 (Protein skinhead-1): 16 µM (active)

CSc1nc(-c2ccco2)nn1C(=O)c1cccs1
AC50 [2]: 28.3 µM (active)
EC50 (Protein RecA): 24.7 µM (active)

COC(=O)c1ccc(S(=O)(=O)N2CCCCCC2)cc1
IC50 (Protein skinhead-1): > 100 µM (inactive)

C=CCn1c(S)nnc1-c1cc(Cl)ccc1OC
EC50 [4]: > 112 µM (not active)

COc1ccc(CNCC(O)COc2ccc(C(C)(C)c3ccccc3)cc2)cc1 (stereo not drawn)
AC50 [5]: 3.38 µM (active)
EC50 [6]: > 260 µM (inactive)

COc1ccc(-c2cc(-c3ccccc3)[nH]n2)c(O)c1
IC50 (Protein skinhead-1): > 100 µM (inactive)

O=C1NC(c2ccc(-c3ccccc3[N+](=O)[O-])o2)C(C(=O)c2ccc(Cl)cc2)C(O)(C(F)(F)F)N1 (stereo not drawn)
AC50 [5]: 9.56 µM (active)
AC50 [2]: 4.27 µM (active)

C[C@@H](CN)CC(=O)O
AC50 (Cytochrome P450 1A2): 39.8 µM (inconclusive)

O=C(Nc1ccc(-c2cn3ccsc3n2)cc1)C1COc2ccccc2O1 (stereo not drawn)
IC50 (Protein skinhead-1): > 100 µM (inactive)

Cc1n[nH]c2c1C(c1c(C)nn(C)c1C)C(C#N)=C(N)O2 (stereo not drawn)
AC50 [2]: 4.2 µM (active)
EC50 (Protein RecA): 4.86 µM (active)

COC(=O)[C@@H]1[C@@H]2C[C@H]3c4[nH]c5cc(OC)ccc5c4CCN3C[C@@H]2C[C@H](OC(=O)/C=C\c2cc(OC)c(OC)c(OC)c2)[C@H]1OC
AC50 (Cytochrome P450 1A2): 3.16 µM (inconclusive)

Cc1ccc(NC(=O)COc2ccc(Br)cc2CO)cc1S(=O)(=O)N1CCOCC1
IC50 (Protein skinhead-1): > 100 µM (inactive)

CC(C)(C)NC(=O)COC(=O)c1cncc(Br)c1
AC50 (Cytochrome P450 1A2): 20 µM (inconclusive)
AC50 (Cytochrome P450 3A4): 15.8 µM (inconclusive)

CC(C)C(=O)NCCc1nc(-c2ccccc2Cl)no1
IC50 (Protein skinhead-1): > 100 µM (inactive)

CCOC(=O)CCCN
AC50 (Cytochrome P450 1A2): 6.31 µM (inconclusive)

N[C@@H](Cc1cccnn1)C(=O)O
AC50 (Cytochrome P450 1A2): 3.16 µM (inconclusive)

CC(C)NC(=O)C1(C)CSCC(=O)N1CCCN1CCOCC1 (stereo not drawn)
IC50 (Protein skinhead-1): > 100 µM (inactive)

COc1cc(C(=O)Nc2nccs2)cc(OC)c1OC
IC50 (Protein skinhead-1): > 100 µM (inactive)

Cc1ccc(/C=N/NC(=O)Cn2nccc2C)o1
AC50 (Cytochrome P450 2C19): 11.2 µM (inconclusive)
AC50 (Cytochrome P450 1A2): 15.8 µM (inconclusive)

O=c1cc(C23CC4CC(CC(C4)C2)C3)[nH][nH]1
AC50 [2]: 2.85 µM (active)
EC50 (Protein RecA): 2.52 µM (active)

COc1ccc(C2C(C(C)=O)=C(C)N=c3s/c(=C\c4cc(C)n(C)c4C)c(=O)n32)c(OC)c1 (stereo not drawn)
IC50 (Protein skinhead-1): > 100 µM (inactive)

CCCCCCCCCCCCCCCC(=O)C(F)(F)F
AC50 (Cytochrome P450 1A2): 31.6 µM (inconclusive)
